What was measured:
SkBr-3 Cells = test: Real-time PCR Apoptosis Array; assay type: cell-based, human; design: key: fold change in mRNA level; negative = down-regulation; details: 50 um Q10, 24 hours
Method: (§1) RNA was quantified by measuring Optical Density at 260 nm.
Changes in mRNA levels were evaluated using real-time PCR quantification to assess mRNA levels in pre-selected subsets containing […] pathway specific targets.
For the interpretation of mRNA results, the genes that were altered in their mRNA transcription by a two-fold level were identified and evaluated. The level of gene transcription to produce mRNA only provides a rough estimate of potential changes in the level of the expressed protein. The skilled artisan will appreciate that each mRNA may have different rates at which it is degraded or its translation inefficiently, thus resulting in differing amounts of protein.
The assay method of RT-PCR was utilized to provide a measure of mRNA level changes to a total of 84 apoptotic pathway related proteins.

SCC cells = test: Real-time PCR Diabetes Array; assay type: cell-based; details: 100 μM Q10, at 6 hours
Text: The control cells were untreated cells.
as §1

ATP Citrate Lyase (ACL) = test: Western blot of ATP citrate lyase levels in normal and cancer cells; assay type: cell-based, human
Method: The whole cell pellets were resuspended one at a time in 1 mL of C7 buffer and transferred to labeled 15 mL tubes. The samples were then sonicated in the cold room on ice using 6 sonic pulses with the setting at #14. The samples were spun for a short time to 2500 g after sonication and the samples transferred to 2 ml tubes. The pH was verified of each sample (pH should be 9.0) using the foam remaining in the […] sample tubes.
After transfer each of the blots was placed in between 2 Whatman Filter papers and dried for 15-20 minutes. After drying the blots were labeled with the date, the type of samples and either blot 1 or blot 2 using a HB pencil. The molecular weight markers were outlined with the pencil and with single lines for the blue and a doublet for the colored markers. The blots were activated with methanol for 5 seconds, washed with water for 5 minutes, and TBST for 15 minutes. The blots were blocked for 1 hour with 5% blocking reagent in TBS-T at room temperature and then washed 3 times with TBS-T (1×-15′; 2×5′ each). Blot 1 was probed with the primary antibody for IDH1 (Cell Signaling #3997) in TBST with 5% BSA (at 1:1000 dilutions) and blot 2 with the rabbit polyclonal antibody for ATP Citrate Lyase in 5% BSA (Cell Signaling #4332) at 1:1000 dilution by incubation overnight at 4 deg C. with shaking. After the overnight incubation with primary antibodies, the blots were washed 3 times with TBS-T (1×-15′; 2×5′ each) and probed with the secondary antibody (antirabbit; 1:10,000 dilution) for 1 h on the orbital tilting shaker at room temperature. After 1 h of incubation with secondary antibodies, the blots were washed 3 times with TBS-T (1×-15′; 2×5′ each) and then incubated with ECF reagent for 5 mins and then each blot scanned with 5100 Fuji Laser scanner at 25 uM resolution, 16 bit, green laser, at 400V and at 500 V.
The samples were processed and run on a 4-12% Bis-Tris Novex NuPAGE gel as described above. The gels were run, transferred and stained essentially as described above.
The Isocitrate dehydrogenase blot was stripped by incubating for 30 minutes with methanol, followed by two 10 minute washes with TBS-T, then 30 minutes of incubation with stripping buffer at 50 deg C., and followed by two washes with 100 ml or more of TBS-T for 30′ each. The blot was scanned in laser scanner to check for complete stripping. The blot was activated with methanol for 5 seconds, washed with water for 5 minutes, and TBST for 15 minutes. The blot was blocked for 1 hour with 5% blocking reagent in TBS-T at room temperature and then washed 3 times with TBS-T (1×-15′; 2×5′ each). This was then probed with the rabbit polyclonal antibody for ATP Citrate Lyase in 5% BSA (Cell Signaling #4332) at 1:1000 dilution overnight at 4 deg C. with shaking. After the overnight incubation with primary antibody for ATP Citrate Lyase, the membrane was washed 3 times with TBS-T (1×-15′; 2×5′ each) and probed with the secondary antibody (antirabbit; 1:10,000 dilution) for 1 h on the orbital tilting shaker at room temperature. After 1 h of incubation with secondary antibodies, the blot was washed 3 times with TBS-T (1×-15′; 2×5′ each) and then incubated with ECF reagent for 5 minutes and then each blot scanned with 5100 Fuji Laser scanner at 25 uM resolution, 16 bit, green laser, at 400V and at 500 V.
In this experiment (western blot experiment 3), and in all of the experiments described below in this Example (i.e., western blot experiments 4 through 9), the cells were additionally treated with either 5 mM glucose (“5G”) or 22 mM glucose (“22G”). The samples derived from the cells were processed and run on a 4-12% Bis-Tris Novex NuPAGE gel as described above. The gels were run, transferred and stained essentially as described above.
The levels of IDH1, ATP citrate lyase and actin levels were determined by probing the blots with primary antibodies for IDH1, ATP citrate lyase and actin, essentially as described above.

## COC1=C(OC)C(=O)C(C/C=C(\C)CC/C=C(\C)CC/C=C(\C)CC/C=C(\C)CC/C=C(\C)CC/C=C(\C)CC/C=C(\C)CC/C=C(\C)CC/C=C(\C)CCC=C(C)C)=C(C)C1=O [Q10, Coenzyme Q10]
SkBr-3 Cells
  APAF1 mRNA Up-Down Regulation: 2.6244
  BAX mRNA Up-Down Regulation: 3.896
  BCL2L1 mRNA Up-Down Regulation: 13.1957
  BCL2L11 mRNA Up-Down Regulation: 4.6012
  BCL2 mRNA Up-Down Regulation: 5.4717
  BIRC6 mRNA Up-Down Regulation: 4.7966
  BNIP2 mRNA Up-Down Regulation: 6.3291
  BRAF mRNA Up-Down Regulation: 4.3832
  HPRT1 mRNA Up-Down Regulation: −160.6748
  XIAP mRNA Up-Down Regulation: 4.3832
SCC cells
  INPPL1 Regulation: Down regulated at
ATP Citrate Lyase (ACL); HASMC, 5g48-50
  ATP Citrate Lysase ~kd band Normalized Intensity (HASMC vs. HepG2): 23341
  ATP Citrate Lysase ~kd band Normalized Intensity (HASMC vs. PACA2): 12056
ATP Citrate Lyase (ACL); HASMC, 5g48-100
  ATP Citrate Lysase ~kd band Normalized Intensity (HASMC vs. HepG2): 25544
  ATP Citrate Lysase ~kd band Normalized Intensity (HASMC vs. PACA2): 15265
ATP Citrate Lyase (ACL); HASMC, 22G48-50
  ATP Citrate Lysase ~kd band Normalized Intensity (HASMC vs. HepG2): 21439
  ATP Citrate Lysase ~kd band Normalized Intensity (HASMC vs. PACA2): 15857
ATP Citrate Lyase (ACL); HASMC, 22G48-100
  ATP Citrate Lysase ~kd band Normalized Intensity (HASMC vs. HepG2): 19491
  ATP Citrate Lysase ~kd band Normalized Intensity (HASMC vs. PACA2): 13892
ATP Citrate Lyase (ACL); HepG2, 5g48-50
  ATP Citrate Lysase ~kd band Normalized Intensity (HASMC vs. HepG2): 24106
ATP Citrate Lyase (ACL); HepG2, 5g48-100
  ATP Citrate Lysase ~kd band Normalized Intensity (HASMC vs. HepG2): 22463
ATP Citrate Lyase (ACL); HepG2, 22G48-50
  ATP Citrate Lysase ~kd band Normalized Intensity (HASMC vs. HepG2): 31235
ATP Citrate Lyase (ACL); HepG2, 22G48-100
  ATP Citrate Lysase ~kd band Normalized Intensity (HASMC vs. HepG2): 50588
ATP Citrate Lyase (ACL); PACA2, 5g48-50
  ATP Citrate Lysase ~kd band Normalized Intensity (HASMC vs. PACA2): 8027
ATP Citrate Lyase (ACL); PACA2, 5g48-100
  ATP Citrate Lysase ~kd band Normalized Intensity (HASMC vs. PACA2): 4942
ATP Citrate Lyase (ACL); PACA2, 22G48-50
  ATP Citrate Lysase ~kd band Normalized Intensity (HASMC vs. PACA2): 9537
ATP Citrate Lyase (ACL); PACA2, 22G48-100
  ATP Citrate Lysase ~kd band Normalized Intensity (HASMC vs. PACA2): 14901

Source: US9205064B2, “Methods for the diagnosis of oncological disorders using epimetabolic shifters, multidimensional intracellular molecules, or environmental influencers” (Berg LLC, priority 2009, dated 2015)
